Laboratory results: patent US20230201192A1, “METHODS AND MATERIALS FOR ASSESSING AND TREATING CANCER” (Mayo Foundation for Medical Education and Research, priority 2020, published 2023)

How the values were obtained:
[1] = Cell proliferation / viability assay (CyQuant or Coulter count), SSI-4 dose response; format: cell-based; settings: 72 h; responsive HCC, CCA, ccRCC and MM cell lines; dose response 0.01-10,000 nM, 3 day exposure
Description: (§1) Cells were seeded at 5,000 cells/well in clear-bottom 96-well plates in triplicate. Drug treatment was applied at 1:1000 in reduced serum conditions (3%). After 72 hours, cells were washed with PBS, and stored at −80° C. prior to analysis using CyQuant® Proliferation Analysis Kit (Invitrogen) per manufacturers' protocol for relative fluorescence units. Alternatively, cells were plated 2×10^5/ well in 12-well plates (Genesee Scientific) in triplicate prior to drug treatment. After 120-hour treatment, cell number was established using a Coulter Particle Counter (Beckman). Oleic acid-albumin (Sigma Aldrich) was added to media at 5 μM, and was applied adjuvant to drug treatment. Drug stocks were prepared in DMSO (Sigma) at 1000×. IC50 dosing per cell line was calculated as described elsewhere (von Roemeling et al., Oncotarget, 9:3-20 (2018)).
(§2) SCD1 expression was examined in cell lines. Cells were treated with 1 μM SSI-4 for 3 days and a viability assay was used to identify SSI-4 sensitive and insensitive cell lines. Certain cell lines were also treated with varied doses (0.01-10,000 nM) of SSI-4 for 3 days. Not all cells that express SCD1 are sensitive to a SCD1 inhibitor (FIG. 1 and FIG. 2).

[2] = system: hepatocellular carcinoma (HCC), cholangiocarcinoma (CCA), clear cell renal cell carcinoma (ccRCC) and melanoma (MM) cell lines; test: as above; format: cell-based; settings: responsive cell lines; 1 μM SSI-4 + 500 ug/ml BSA-OA, three days
Description: as §1, §2

[3] = system: SSI-4 sensitive HCC cells; test: Soft agar colony formation; format: cell-based; settings: 1 micromolar SSI-4
Description: Soft agar cultures were prepared by diluting 2× growth medium 1:1 in 1.5% SeaplaqueGTG agarose (Lonza), with 500 cells/plate in 60-mm culture dishes (Genesee Scientific). Colonies were stained with Giemsa (LabChem Inc.) and counted after 3 weeks.
In FIG. 3A, cells representative of HCC (top row), RCC (middle row) and MM (bottom row) are shown. In FIG. 3B, sensitive HCC cells are treated with 1 micromolar SSI-4 showing inhibition of colony formation (i.e. growth). In FIG. 3C, colonies are quantitated comparing control to SSI-4 treated cells. […] Each treatment group was repeated in triplicate. Colony number is the mean+/−standard deviation (S.D.). Thus, soft agar assay can independently predict response to SCD1 inhibitor but requires fresh live tumor tissue and laboratories such as the Copland laboratory that can access tissues, process tissues and perform the assays.

[4] = system: Unsaturated fatty acids (UFAs); test: Unsaturated fatty acids measured in media of cells; format: cell-based; settings: SSI-4 sensitive cells, 1 μM SSI-4
[5] = system: endoplasmic reticulum (ER) stress induced proteins; test: mRNA expression of ER stress induced proteins by qPCR; format: cell-based; settings: sensitive cells, 1 μM SSI-4 for 48 hours, fold change to untreated cells
[6] = system: BIP, cleaved PARP, cleaved caspase 3, c-Myc, cyclin D1, survivin; test: Western blot analysis of ER stress, apoptosis and c-Myc signaling; format: cell-based
Description: HCC, RCC, CCA, and MM cell lines (2000 cells/well) were incubated with DMSO control (1:1000), 500 ug/ml bovine serum albumin-oleic acid (BSA-OA) and/or 1 μM SSI-4 for three days and determined for cell viability (FIG. 4A). Nonresponsive cell lines are closed triangle and responsive are open triangles. […] Specificity for blockade of SCD1 is shown by rescue with the enzyme end product, oleic acid (OA).
Western blot analysis: Cell protein extracts were prepared using RIPA lysis buffer containing 50 mmol/L Tris, 5 mmol/L EDTA, 150 mmol/L NaCl, 0.1% SDS, 0.5% deoxycholate, 1% NP40, protease inhibitor cocktail, and phosphatase inhibitor. Tissue protein extracts were prepared from frozen samples using 1% SDS in 50 mmol/L pH 8.0 Tris buffer containing protease inhibitor cocktail and phosphatase inhibitor with brief sonication on ice. Electrophoresis, transfer, blocking, and antibody preparations were performed. The following primary antibodies were included: SCD1, c-Myc, pSrc Y418, Src, b-actin, PARP, cleaved caspase 3, survivin, cyclin D1. Secondary species-specific horseradish peroxidase-labeled antibodies were applied, and Supersignal Chemiluminescent Kit was used to perform detection.
In FIG. 6, c-Myc protein expression correlates with SCD1 sensitive cell lines. SCD1 protein is expressed in most cancer cells (HCC and ccRCC) while c-Myc protein expression appears to be expressed in SSI-4 sensitive cells.

[7] = system: c-Myc silenced SSI-4 responsive cells / c-Myc overexpressing nonresponsive cells; test: Cell viability after c-Myc silencing (shRNA) or c-Myc overexpression; format: cell-based
Description: c-Myc gene silencing (shRNA) and c-Myc over-expression: Lentivirus shRNA pLKO.1 constructs were used to make self-inactivating shRNA lentiviruses for human c-Myc and a nontarget random scrambled sequence control. Transfection reagents Lipofectamine 2000 and ViraPower were used to generate lentiviruses using HEK293FT viral progenitor cells. Cells were incubated with lentivirus plus […] polybrene for 24 hours before clonal selection with puromycin.
In FIG. 8, overexpression of c-Myc in nonresponsive SSI-4 cells convert cells to SSI-4 sensitive (growth inhibited) cells. c-Myc mRNA expression is ˜2-fold elevated in cells infected with a c-Myc expression plasmid (FIG. 8A).

[8] = system: PDX tumor models for RCC, HCC, melanoma and CCA; test: PDTX tumor models in Nod Scid gamma mice; format: in vivo, NSG mice; settings: oral, 180 parts per million in chow=10 mg/kg daily; treatment from ~75 mm^3; models predicted responsive by IHC
Description: Animal models and drug testing: PDTX tumors (5×5×5-mm) were implanted into Nod Scid gamma mice with treatment (vehicle control or oral SSI-4) begun when tumors were approximately ˜75-100 mm^3. Tumor volume, food consumption and body weight were monitored twice weekly. Tumor tissue was collected and processes for IHC.
In FIG. 10, PDTX tumor models for HCC, ccRCC, CCA, and melanoma respond to SSI-4 or not correlate with predictions shown in FIG. 10. PDTX tumors were grown in the right flank of Nod Scid Gamma (NSG) mice with treatment beginning when tumors reach ˜75 mm^3 with the start of SSI-4 oral treatment. Tumor tissues were formalin fixed and paraffin block slides were stained for SCD1, c-Myc, LDHA, p-Src by standard IHC protocols for protein expression. PDTX models tested include RCC, HCC, melanoma, and CCA. * indicates statistical difference of SSI-4 from same day treatment control (P<0.05). Number in red predicts no response to SSI-4 (SCD1 inhibitor). […] Cells resistant to SSI-4 may have low or no cMyc and no or low LDHA with elevated p-Src. Cell with elevated cMyc and LDHA and low p-Src are responsive to SSI-4 or SCD1 inhibition.

CNC(=O)c1ccnc(NC(=O)N2CCC(Oc3ccccc3Cl)CC2)c1 [SSI-4, 2-{[4-(2-Chlorophenoxy)piperidine-1-carbonyl]amino}-N-methylpyridine-4-carboxamide]
IC50 [1]: 1 to 40 nM | rescue of SSI-4 inhibition of cell proliferation by oleic acid (BSA-OA) [2]: complete rescue | colony formation on soft agar [3]: blocked colony formation | unsaturated fatty acids (UFAs) [4]: suppressed UFAs to levels equal to non-responsive cells | mRNA expression for ER stress induced proteins [5]: became elevated | c-Myc and c-Myc regulated genes (cyclin D1 and survivin) protein expression ([6]; 1 μM SSI-4, restored by oleic acid BSA): down-regulated | ER stress (BIP protein, Western) ([6]; HCC cell lines): upregulation of BIP protein | apoptosis (cleaved PARP and cleaved caspase 3, Western) ([6]; HCC cell lines): Apoptotic cell death is induced | cMyc protein (Western) ([6]; HCC cell lines, rescue by OA): down-regulates cMyc protein | sensitivity of cells silenced for c-Myc to SSI-4 treatment ([7]; SSI-4 responsive cells with c-Myc shRNA): become insensitive | inhibition at 1 µM ([7]; c-Myc expressing (previously nonresponsive) cells, 1 uM SSI-4, read-out: enhanced growth inhibition): 33 to 45% | tumor response (tumor volume) [8]: respond
